Assay results taken from US20190055279A1, “NOVEL POLYPEPTIDES WITH IMPROVED PROTEOLYTIC STABILITY, AND METHODS OF PREPARING AND USING SAME” (TUFTS UNIVERSITY, priority 2015, published 2019).
“And” between values parts separate entries of the source, which are not always exact repeats. Equal values may be shown once. Read-outs that look alike come from different tables or passages of the source.

Tests used:
DPP2 [1] = biological target: T1, DPP2 (Homo sapiens, UniProt Q9UHL4)
FAP [2] = biological target: T2, FAP (Homo sapiens, UniProt Q12884)
T2 sequence (Q12884 1-760): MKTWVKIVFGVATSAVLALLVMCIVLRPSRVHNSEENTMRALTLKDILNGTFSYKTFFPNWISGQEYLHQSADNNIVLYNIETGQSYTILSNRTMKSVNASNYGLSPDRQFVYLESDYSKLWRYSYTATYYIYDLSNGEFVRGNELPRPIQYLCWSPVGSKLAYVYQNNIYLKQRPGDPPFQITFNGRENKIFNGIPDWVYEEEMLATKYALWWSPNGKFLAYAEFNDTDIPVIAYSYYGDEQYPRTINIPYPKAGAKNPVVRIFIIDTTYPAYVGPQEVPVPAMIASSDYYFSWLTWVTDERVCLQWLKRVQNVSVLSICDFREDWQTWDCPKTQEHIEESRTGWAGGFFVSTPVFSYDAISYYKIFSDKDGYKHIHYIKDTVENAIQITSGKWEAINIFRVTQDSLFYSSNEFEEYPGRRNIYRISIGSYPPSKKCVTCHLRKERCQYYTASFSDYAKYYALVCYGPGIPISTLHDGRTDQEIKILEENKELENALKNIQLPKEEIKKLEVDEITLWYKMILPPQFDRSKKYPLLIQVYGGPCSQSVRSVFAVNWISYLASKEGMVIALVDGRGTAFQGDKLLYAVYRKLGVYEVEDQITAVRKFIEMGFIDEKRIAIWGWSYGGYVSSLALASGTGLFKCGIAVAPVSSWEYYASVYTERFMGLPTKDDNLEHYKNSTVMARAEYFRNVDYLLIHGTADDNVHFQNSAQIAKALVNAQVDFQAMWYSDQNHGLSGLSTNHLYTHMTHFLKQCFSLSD

FAP [3] = biological target: T2, FAP; experiment: Stability assay with or without FAP, read out by receptor bioassay (FIG. 9A, FIG. 18); conditions: incubated with or without FAP
DPP2 [4] = biological target: T1, DPP2; experiment: Stability assay with or without DPP2, read out by receptor bioassay (FIG. 9A); conditions: incubated with or without DPP2
[5] = cited from earlier work
DPP4 [6] = biological target: T3, DPP4 (Homo sapiens, UniProt P27487); experiment: DPP4 degradation of GLP-2 peptides: incubation with recombinant DPP4, then GLP-2R reporter assay
T3 sequence (P27487 whole entry, species assumed): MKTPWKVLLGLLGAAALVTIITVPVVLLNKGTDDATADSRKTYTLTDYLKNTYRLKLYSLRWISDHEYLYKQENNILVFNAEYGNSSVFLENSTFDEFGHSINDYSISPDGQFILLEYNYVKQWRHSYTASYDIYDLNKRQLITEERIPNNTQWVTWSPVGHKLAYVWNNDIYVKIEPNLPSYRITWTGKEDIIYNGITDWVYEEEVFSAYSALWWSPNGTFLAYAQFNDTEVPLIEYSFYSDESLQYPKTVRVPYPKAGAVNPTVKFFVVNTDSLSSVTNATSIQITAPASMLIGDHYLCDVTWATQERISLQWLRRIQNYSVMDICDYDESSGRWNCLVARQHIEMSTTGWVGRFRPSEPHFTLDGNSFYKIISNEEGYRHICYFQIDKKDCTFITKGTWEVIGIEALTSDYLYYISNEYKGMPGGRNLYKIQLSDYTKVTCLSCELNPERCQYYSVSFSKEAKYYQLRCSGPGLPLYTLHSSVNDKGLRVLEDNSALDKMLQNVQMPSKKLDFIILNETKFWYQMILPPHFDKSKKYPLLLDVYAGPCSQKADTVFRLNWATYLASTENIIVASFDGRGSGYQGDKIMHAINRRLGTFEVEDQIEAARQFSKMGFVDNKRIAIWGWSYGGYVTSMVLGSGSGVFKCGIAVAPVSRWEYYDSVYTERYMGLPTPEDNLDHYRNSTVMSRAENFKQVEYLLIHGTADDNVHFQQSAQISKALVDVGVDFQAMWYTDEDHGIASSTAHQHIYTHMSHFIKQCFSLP
Method: (§1) Peptides were incubated with vehicle or recombinant DPP4. Serial dilutions of GLP2-1 and GLP2-4 were then applied to HEK293 cells, which had been transfected with cDNA encoding human GLP-2R and a cAMP-responsive reporter gene.
(§2) Peptides were incubated with recombinant DPP4. Serial dilutions of GLP-2 and GLP2-4 were then applied to HEK293 cells, which had been transfected with cDNA encoding human GLP-2R and a cAMP-responsive reporter gene. […] N=4, mean+SEM.
(§3) DPP4 resistance (FIG. 13): Lipidated peptides are compared with the prototype, F-GLP2-palm. After an overnight incubation (16 hrs) in the presence vs. the absence of DPP4, receptor mediated function is assessed as shown elsewhere herein. As a DPP4 susceptible control, parallel experiments are done using GLP-2. […] Following overnight preincubation, serial dilutions of ligands were prepared and added to GLP-2R expressing cells for 4 hours. A luciferase reporter gene assay was used to monitor Gαs coupled second messenger signaling.

wild type mice = conditions: GLP-2 twice daily over ten days; GATTEX daily; cited from earlier work
DPP4 [7] = biological target: T3, DPP4
Method: as §1, §2, §3

SBS patients = conditions: after 52 weeks of treatment; cited from earlier work
DPP4 [8] = biological target: T3, DPP4; experiment: Sensitivity to DPP4: overnight incubation with recombinant DPP4 or vehicle, then receptor agonist bioassay; conditions: overnight incubation with or without DPP4, readout at cognate receptor
Method: Plotting concentration versus the luciferase activity yielded quantitative parameters for combined binding (potency) and signaling (efficacy) in a single step. […] DPP4 treated peptides: 10 μl of 0.26 mM peptide were incubated with 2 μL DPP4 in buffer ±DMSO for 18 hrs. Control peptides: 10 μl of 0.26 mM peptide was added to buffer ±DMSO. The final DMSO concentration was the same for all peptides and all peptides were diluted to 0.26 mM concentrations for the DPP4 assay.
Compounds are incubated overnight at 37° C. in the presence of recombinant DPP4 or vehicle (TRIS buffer). The samples are then assessed in GLP-1R agonist assays.
Compounds were incubated overnight at 37° C. in the presence of recombinant DPP4 or vehicle (TRIS buffer, pH 8.0). The samples were then assessed in GLP1R agonist assays as described elsewhere herein.

CC[C@H](C)[C@H](NC(=O)[C@H](CO)NC(=O)[C@H](Cc1ccc(O)cc1)NC(=O)[C@H](CC(=O)O)NC(=O)[C@H](CO)NC(=O)[C@@H](NC(=O)[C@H](Cc1ccccc1)NC(=O)[C@@H](NC(=O)CNC(=O)[C@H](CCC(=O)O)NC(=O)[C@H](C)NC(=O)[C@@H](N)Cc1ccc(O)cc1)[C@@H](C)O)[C@@H](C)CC)C(=O)N[C@@H](C)C(=O)N[C@@H](CCSC)C(=O)N[C@@H](CC(=O)O)C(=O)N[C@@H](CCCCN)C(=O)N[C@H](C(=O)N[C@@H](Cc1c[nH]cn1)C(=O)N[C@@H](CCC(N)=O)C(=O)N[C@@H](CCC(N)=O)C(=O)N[C@@H](CC(=O)O)C(=O)N[C@@H](Cc1ccccc1)C(=O)N[C@H](C(=O)N[C@@H](CC(N)=O)C(=O)N[C@@H](Cc1c[nH]c2ccccc12)C(=O)N[C@@H](CC(C)C)C(=O)N[C@@H](CC(C)C)C(=O)N[C@@H](C)C(=O)N[C@@H](CCC(N)=O)C(=O)N[C@@H](CCCCN)C(=O)NCC(=O)N[C@@H](CCCCN)C(=O)N[C@@H](CCCCN)C(=O)N[C@@H](CC(N)=O)C(=O)N[C@@H](CC(=O)O)C(=O)N[C@@H](Cc1c[nH]c2ccccc12)C(=O)N[C@@H](CCCCN)C(=O)N[C@@H](Cc1c[nH]cn1)C(=O)N[C@@H](CC(N)=O)C(=O)N[C@H](C(=O)N[C@H](C(=O)N[C@@H](CCC(N)=O)C(=O)O)[C@@H](C)O)[C@@H](C)CC)C(C)C)[C@@H](C)CC [GIP, Gastric Inhibitory Polypeptide]
stability to DPP2 (in words) (DPP2 [1]): major potency losses | stability to FAP (in words) (FAP [2]): major potency losses

CC[C@H](C)[C@H](NC(=O)[C@H](Cc1ccccc1)NC(=O)[C@H](CCC(=O)O)NC(=O)[C@H](CCCCN)NC(=O)[C@H](C)NC(=O)[C@H](C)NC(=O)[C@H](CCC(N)=O)NC(=O)CNC(=O)[C@H](CCC(=O)O)NC(=O)[C@H](CC(C)C)NC(=O)[C@H](Cc1ccc(O)cc1)NC(=O)[C@H](CO)NC(=O)[C@H](CO)NC(=O)[C@@H](NC(=O)[C@H](CC(=O)O)NC(=O)[C@H](CO)NC(=O)[C@@H](NC(=O)[C@H](Cc1ccccc1)NC(=O)[C@@H](NC(=O)CNC(=O)[C@H](CCC(=O)O)NC(=O)[C@H](C)NC(=O)[C@@H](N)Cc1c[nH]cn1)[C@@H](C)O)[C@@H](C)O)C(C)C)C(=O)N[C@@H](C)C(=O)N[C@@H](Cc1c[nH]c2ccccc12)C(=O)N[C@@H](CC(C)C)C(=O)N[C@H](C(=O)N[C@@H](CCCCN)C(=O)NCC(=O)N[C@@H](CCCNC(=N)N)C(N)=O)C(C)C [GLP-1, glucagon-like peptide-1, reference compound]
stability to FAP (in words) (FAP [3]): major potency losses | stability to DPP2 (in words) (DPP2 [4]): major potency losses

CC[C@H](C)[C@H](NC(=O)[C@H](Cc1ccccc1)NC(=O)[C@H](CC(=O)O)NC(=O)[C@H](CCCN=C(N)N)NC(=O)[C@H](C)NC(=O)[C@H](C)NC(=O)[C@H](CC(C)C)NC(=O)[C@H](CC(N)=O)NC(=O)[C@H](CC(=O)O)NC(=O)[C@H](CC(C)C)NC(=O)[C@@H](NC(=O)[C@@H](NC(=O)[C@H](CC(N)=O)NC(=O)[C@H](CCSC)NC(=O)[C@H](CCC(=O)O)NC(=O)[C@H](CC(=O)O)NC(=O)[C@H](CO)NC(=O)[C@H](Cc1ccccc1)NC(=O)[C@H](CO)NC(=O)CNC(=O)[C@H](CC(=O)O)NC(=O)[C@H](C)NC(=O)[C@@H](N)Cc1cnc[nH]1)[C@@H](C)O)[C@@H](C)CC)C(=O)N[C@@H](CC(N)=O)C(=O)N[C@@H](Cc1c[nH]c2ccccc12)C(=O)N[C@@H](CC(C)C)C(=O)N[C@H](C(=O)N[C@@H](CCC(N)=O)C(=O)N[C@H](C(=O)N[C@@H](CCCCN)C(=O)N[C@H](C(=O)N[C@H](C(=O)N[C@@H](CC(=O)O)C(=O)O)[C@@H](C)O)[C@@H](C)CC)[C@@H](C)O)[C@@H](C)CC [GLP-2, glucagon-like peptide-2, reference compound]
half-life in vivo [5]: 7 min | DPP4 degradation / resistance (in words) (DPP4 [6]; GLP-2R readout): degraded by DPP4 | loss in potency induced by DPP4 (DPP4 [6]; GLP-2R readout, N=4): > 40 fold | peptide degraded by DPP4 (DPP4 [6]; inferred from potency loss): > 97% and ~97%

CC[C@H](C)[C@H](NC(=O)[C@H](Cc1ccccc1)NC(=O)[C@H](CC(=O)O)NC(=O)[C@H](CCCNC(=N)N)NC(=O)[C@H](C)NC(=O)[C@H](C)NC(=O)[C@H](CC(C)C)NC(=O)[C@H](CC(N)=O)NC(=O)[C@H](CC(=O)O)NC(=O)[C@H](CC(C)C)NC(=O)[C@@H](NC(=O)[C@@H](NC(=O)[C@H](CC(N)=O)NC(=O)[C@H](CCSC)NC(=O)[C@H](CCC(=O)O)NC(=O)[C@H](CC(=O)O)NC(=O)[C@H](CO)NC(=O)[C@H](Cc1ccccc1)NC(=O)[C@H](CO)NC(=O)CNC(=O)[C@H](CC(=O)O)NC(=O)CNC(=O)[C@@H](N)Cc1c[nH]cn1)[C@@H](C)O)[C@@H](C)CC)C(=O)N[C@@H](CC(N)=O)C(=O)N[C@@H](Cc1c[nH]c2ccccc12)C(=O)N[C@@H](CC(C)C)C(=O)N[C@H](C(=O)N[C@@H](CCC(N)=O)C(=O)N[C@H](C(=O)N[C@@H](CCCCN)C(=O)N[C@H](C(=O)N[C@H](C(=O)N[C@@H](CC(=O)O)C(=O)O)[C@@H](C)O)[C@@H](C)CC)[C@@H](C)O)[C@@H](C)CC [Gattex, teduglutide]
in vivo half-life [5]: ~3 h | bowel weight (wild type mice): significant increase in both large and small bowel weights | DPP4 degradation / resistance (in words) (DPP4 [7]): only partial DPP4 resistance | SBS patients able to reduce their PN regimen by at least 1 day/week (SBS patients): 68% | patients who failed to reduce their PN regimen by even 1 day/week (SBS patients): 32% | treated patients entirely independent of PN (SBS patients): 4 of 52

CC[C@H](C)[C@H](NC(=O)[C@H](CO)NC(=O)[C@H](Cc1ccc(O)cc1)NC(=O)[C@H](CC(=O)O)NC(=O)[C@H](CO)NC(=O)[C@@H](NC(=O)[C@H](Cc1ccccc1)NC(=O)[C@@H](NC(=O)CNC(=O)[C@H](CCC(=O)O)NC(=O)[C@H](C)NC(=O)[C@H](Cc1ccc(O)cc1)NCC(F)(F)F)[C@@H](C)O)[C@@H](C)CC)C(=O)N[C@@H](C)C(=O)N[C@@H](CCSC)C(=O)N[C@@H](CC(=O)O)C(=O)N[C@@H](CCCCN)C(=O)N[C@H](C(=O)N[C@@H](Cc1c[nH]cn1)C(=O)N[C@@H](CCC(N)=O)C(=O)N[C@@H](CCC(N)=O)C(=O)N[C@@H](CC(=O)O)C(=O)N[C@@H](Cc1ccccc1)C(=O)N[C@H](C(=O)N[C@@H](CC(N)=O)C(=O)N[C@@H](Cc1c[nH]c2ccccc12)C(=O)N[C@@H](CC(C)C)C(=O)N[C@@H](CC(C)C)C(=O)N[C@@H](C)C(=O)N[C@@H](CCC(N)=O)C(=O)N[C@@H](CCCCN)C(=O)NCC(=O)N[C@@H](CCCCN)C(=O)N[C@@H](CCCCN)C(=O)N[C@@H](CC(N)=O)C(=O)N[C@@H](CC(=O)O)C(=O)N[C@@H](Cc1c[nH]c2ccccc12)C(=O)N[C@@H](CCCCN)C(=O)N[C@@H](Cc1c[nH]cn1)C(=O)N[C@@H](CC(N)=O)C(=O)N[C@H](C(=O)N[C@H](C(=O)N[C@@H](CCC(N)=O)C(=O)O)[C@@H](C)O)[C@@H](C)CC)C(C)C)[C@@H](C)CC [I-4]
DPP4 degradation / resistance (in words) (DPP4 [8]): resistant | DPP4 degradation / resistance (in words) (DPP4 [8]; listed as I4): stable | stability to FAP (in words) (FAP [3]): stable | stability to DPP2 (in words) (DPP2 [4]): stable
